Measured values as given in patent publication US20030165447A1, “Topical leave-on compositions containing pantothenic acid and its derivatives to reduce the need for underarm shaving” (The Procter & Gamble Company, priority 2001, published 2003).

Experiment: Acid or hold stability of sample compositions held at 85° C. for 24 hours
Assay type: physicochemical
Settings: heated liquid held at 85° C., 24 hour period; 3.00% pantothenic acid derivative with 25.25% aluminum zirconium trichlorohydrate
Description: The topical leave-on compositions of the present invention are evaluated to determine the relative acid or hold stability of selected pantothenic acid derivatives as defined herein (e.g., ethyl panthenol, panthenyl triacetate) relative to other pantothenic acid derivatives (e.g., panthenol, calcium pantothenate). In this context, acid or hold stability is found to correlate with the lack of visibly apparent crystal formation within or extending from the sample product or by the lack of any significant off-odor development, over a 24 hours period at an elevated hold temperature of 85° C.
Each sample composition is formulated with the above-described ingredients and then held at 85° C. as a heated liquid for a 24 hour period and evaluated during that that period of time for any visibly apparent crystal formations within or extending from the formulation, and for any off-odor development. The evaluated product is maintained in the heated liquid state at 85° C. during the evaluation period to assimilate the elevated processing or hold temperatures often associated with the making of such antiperspirant and deodorant products, and to assimilate those conditions that favor acid-degradation of pantothenic acid derivatives as described herein.

SMILES	Off-odor formation	Visible crystal formation
CCOCCCNC(=O)[C@H](O)C(C)(C)CO [ethyl panthenol]	little or no off-odor development	do not exhibit the undesirable crystal formation
CC(=O)OCCCNC(=O)[C@H](OC(C)=O)C(C)(C)COC(C)=O [panthenyl triacetate]	little or no off-odor development	do not exhibit the undesirable crystal formation
